Data from ChEMBL document CHEMBL1136062 (2002).
Converted amounts (≈) assume the structure as drawn.

Key:
Assay type in all cases: functional
[1] = tested on: Staphylococcus aureus; assay: Tested in vitro for its antibacterial activity against methicillin sensitive Staphylococcus aureus (MB2985)
[2] = tested on: Staphylococcus aureus; assay: Tested in vitro for its antibacterial activity against methicillin resistant Staphylococcus aureus (Mh76)
[3] = tested on: Enterococcus faecium; assay: Tested in vitro for its antibacterial activity against vancomycin resistant Enterococcus faecium (CL4931)
[4] = tested on: Staphylococcus aureus; assay: Tested in vitro for its antibacterial activity against methicillin resistant Staphylococcus aureus (COL)
[5] = tested on: Staphylococcus aureus; assay: In vitro antibacterial activity against vancomycin intermediate resistant Staphylococcus aureus (CL5706)
[6] = tested on: Enterococcus faecalis; assay: Tested in vitro for its antibacterial activity against vancomycin sensitive Enterococcus faecalis (MB2864)
[7] = tested on: Enterococcus faecalis; assay: Tested in vitro for its antibacterial activity against vancomycin resistant Enterococcus faecalis (MB4877)
[8] = tested on: Staphylococcus aureus; assay: In vitro antibacterial activity against vancomycin intermediate resistant Staphylococcus aureus (CL5705)
[9] = tested on: Enterococcus faecium; assay: Tested in vitro for its antibacterial activity against vancomycin resistant Enterococcus faecium (MB5244)
[10] = tested on: Enterococcus faecium; assay: Tested in vitro for its antibacterial activity against vancomycin sensitive Enterococcus faecium (RLA1)
[11] = tested on: Staphylococcus aureus; assay: Tested in vitro for its antibacterial activity against methicillin resistant Staphylococcus aureus (MH76)

## CN[C@H](CC(C)C)C(=O)N[C@H]1C(=O)N[C@@H](CC(N)=O)C(=O)N[C@H]2C(=O)N[C@H]3C(=O)N[C@H](C(=O)N[C@H](C(=O)O)c4cc(O)cc(O)c4-c4cc3ccc4O)[C@H](O)c3ccc(c(Cl)c3)Oc3cc2cc(c3OC2OC(C[N+](C)(C)CCN(C)C)C(O)C(O)C2OC2CC(C)(NCc3ccc(OCc4ccc(Cl)c(Cl)c4)cc3)C(O)C(C)O2)Oc2ccc(cc2Cl)[C@H]1O (some centres undefined)
[1]
  MIC: 2 µg/mL
[2]
  MIC: 2 µg/mL
[3]
  MIC: > 64 µg/mL
[4]
  MIC: 2 µg/mL
[5]
  MIC: 4 µg/mL
[6]
  MIC: 4 µg/mL
[7]
  MIC: > 64 µg/mL
[8]
  MIC: 2 µg/mL
[9]
  MIC: 8 µg/mL
[10]
  MIC: 1 µg/mL

## CN[C@H](CC(C)C)C(=O)N[C@H]1C(=O)N[C@@H](CC(N)=O)C(=O)N[C@H]2C(=O)N[C@H]3C(=O)N[C@H](C(=O)N[C@H](C(=O)O)c4cc(O)cc(O)c4-c4cc3ccc4O)[C@H](O)c3ccc(c(Cl)c3)Oc3cc2cc(c3O[C@@H]2O[C@H](CO)[C@@H](O)[C@H](O)[C@H]2O[C@H]2C[C@](C)(N)[C@H](O)[C@H](C)O2)Oc2ccc(cc2Cl)[C@H]1O [VANCOMYCIN]
[3]
  MIC: 2050 µg/mL (≈ 1410 µM)
[5]
  MIC: 8 µg/mL (≈ 5.52 µM)
[7]
  MIC: 2050 µg/mL (≈ 1410 µM)
[9]
  MIC: 16 µg/mL (≈ 11 µM)

## CN[C@H](CC(C)C)C(=O)N[C@H]1C(=O)N[C@@H](CC(N)=O)C(=O)N[C@H]2C(=O)N[C@H]3C(=O)N[C@H](C(=O)N[C@H](C(=O)O)c4cc(O)cc(O)c4-c4cc3ccc4O)[C@H](O)c3ccc(c(Cl)c3)Oc3cc2cc(c3OC2OC(C[N+](C)(C)C)C(O)C(O)C2OC2CC(C)(NCc3ccc(OCc4ccc(Cl)c(Cl)c4)cc3)C(O)C(C)O2)Oc2ccc(cc2Cl)[C@H]1O (some centres undefined)
[1]
  MIC: 0.5 µg/mL
[3]
  MIC: > 64 µg/mL
[4]
  MIC: 0.5 µg/mL
[11]
  MIC: 0.5 µg/mL
[5]
  MIC: 2 µg/mL
[6]
  MIC: 1 µg/mL
[7]
  MIC: 16 µg/mL
[8]
  MIC: 2 µg/mL
[9]
  MIC: 1 µg/mL
[10]
  MIC: 0.5 µg/mL

## CN[C@H](CC(C)C)C(=O)N[C@H]1C(=O)N[C@@H](CC(N)=O)C(=O)N[C@H]2C(=O)N[C@H]3C(=O)N[C@H](C(=O)N[C@H](C(=O)O)c4cc(O)cc(O)c4-c4cc3ccc4O)[C@H](O)c3ccc(c(Cl)c3)Oc3cc2cc(c3OC2OC(C[N+](C)(C)Cc3ccccc3)C(O)C(O)C2OC2CC(C)(NCc3ccc(OCc4ccc(Cl)c(Cl)c4)cc3)C(O)C(C)O2)Oc2ccc(cc2Cl)[C@H]1O (some centres undefined)
[1]
  MIC: 0.25 µg/mL
[3]
  MIC: > 64 µg/mL
[4]
  MIC: 0.5 µg/mL
[11]
  MIC: 0.25 µg/mL
[5]
  MIC: 1 µg/mL
[6]
  MIC: 2 µg/mL
[7]
  MIC: 16 µg/mL
[8]
  MIC: 1 µg/mL
[9]
  MIC: 1 µg/mL
[10]
  MIC: 0.25 µg/mL

## CN[C@H](CC(C)C)C(=O)N[C@H]1C(=O)N[C@@H](CC(N)=O)C(=O)N[C@H]2C(=O)N[C@H]3C(=O)N[C@H](C(=O)N[C@H](C(=O)O)c4cc(O)cc(O)c4-c4cc3ccc4O)[C@H](O)c3ccc(c(Cl)c3)Oc3cc2cc(c3OC2OC(CN(C)C)C(O)C(O)C2OC2CC(C)(NCc3ccc(OCc4ccc(Cl)c(Cl)c4)cc3)C(O)C(C)O2)Oc2ccc(cc2Cl)[C@H]1O (some centres undefined)
[1]
  MIC: ≤ 0.03 µg/mL
[3]
  MIC: 32 µg/mL (≈ 18.4 µM)
[4]
  MIC: 0.5 µg/mL (≈ 0.287 µM)
[11]
  MIC: 0.25 µg/mL (≈ 0.144 µM)
[5]
  MIC: 0.5 µg/mL (≈ 0.287 µM)
[6]
  MIC: 1 µg/mL (≈ 0.574 µM)
[7]
  MIC: 16 µg/mL (≈ 9.19 µM)
[8]
  MIC: 1 µg/mL (≈ 0.574 µM)
[9]
  MIC: 1 µg/mL (≈ 0.574 µM)
[10]
  MIC: ≤ 0.03 µg/mL

## CNCC1OC(Oc2c3cc4cc2Oc2ccc(cc2Cl)[C@@H](O)[C@@H](NC(=O)[C@@H](CC(C)C)NC)C(=O)N[C@@H](CC(N)=O)C(=O)N[C@H]4C(=O)N[C@H]2C(=O)N[C@H](C(=O)N[C@H](C(=O)O)c4cc(O)cc(O)c4-c4cc2ccc4O)[C@H](O)c2ccc(c(Cl)c2)O3)C(OC2CC(C)(NCc3ccc(OCc4ccc(Cl)c(Cl)c4)cc3)C(O)C(C)O2)C(O)C1O (some centres undefined)
[1]
  MIC: ≤ 0.03 µg/mL
[3]
  MIC: 32 µg/mL (≈ 18.5 µM)
[4]
  MIC: 0.12 µg/mL (≈ 0.0695 µM)
[11]
  MIC: 0.12 µg/mL (≈ 0.0695 µM)
[5]
  MIC: 0.25 µg/mL (≈ 0.145 µM)
[6]
  MIC: 0.25 µg/mL (≈ 0.145 µM)
[7]
  MIC: 4 µg/mL (≈ 2.32 µM)
[8]
  MIC: 1 µg/mL (≈ 0.579 µM)
[9]
  MIC: 1 µg/mL (≈ 0.579 µM)
[10]
  MIC: 0.03 µg/mL (≈ 0.0174 µM)

## CN[C@H](CC(C)C)C(=O)N[C@H]1C(=O)N[C@@H](CC(N)=O)C(=O)N[C@H]2C(=O)N[C@H]3C(=O)N[C@H](C(=O)N[C@H](C(=O)O)c4cc(O)cc(O)c4-c4cc3ccc4O)[C@H](O)c3ccc(c(Cl)c3)Oc3cc2cc(c3OC2OC(C[N+](C)(C)CCO)C(O)C(O)C2OC2CC(C)(NCc3ccc(OCc4ccc(Cl)c(Cl)c4)cc3)C(O)C(C)O2)Oc2ccc(cc2Cl)[C@H]1O (some centres undefined)
[1]
  MIC: 2 µg/mL
[3]
  MIC: > 64 µg/mL
[4]
  MIC: 1 µg/mL
[11]
  MIC: 1 µg/mL
[5]
  MIC: 2 µg/mL
[6]
  MIC: 2 µg/mL
[7]
  MIC: 8 µg/mL
[8]
  MIC: 2 µg/mL
[9]
  MIC: 4 µg/mL
[10]
  MIC: 0.5 µg/mL

## CN[C@H](CC(C)C)C(=O)N[C@H]1C(=O)N[C@@H](CC(N)=O)C(=O)N[C@H]2C(=O)N[C@H]3C(=O)N[C@H](C(=O)N[C@H](C(=O)O)c4cc(O)cc(O)c4-c4cc3ccc4O)[C@H](O)c3ccc(c(Cl)c3)Oc3cc2cc(c3OC2OC(C[N+]34CCN(CC3)CC4)C(O)C(O)C2OC2CC(C)(NCc3ccc(OCc4ccc(Cl)c(Cl)c4)cc3)C(O)C(C)O2)Oc2ccc(cc2Cl)[C@H]1O (some centres undefined)
[1]
  MIC: 1 µg/mL
[3]
  MIC: > 32 µg/mL
[4]
  MIC: 1 µg/mL
[11]
  MIC: 1 µg/mL
[5]
  MIC: 2 µg/mL
[6]
  MIC: 2 µg/mL
[7]
  MIC: 8 µg/mL
[8]
  MIC: 2 µg/mL
[9]
  MIC: 1 µg/mL
[10]
  MIC: 0.5 µg/mL
